Experimental data published in patent publication US10377770B2 (Novartis AG, priority 2015, dated 2019).

The compounds below were run against C-Raf FL (full length CRAF with Y340E and Y341E activating mutations, co-expressed with h14-3-3 zeta) (Homo sapiens (Human), UniProt P04049, Y340E/Y341E) (assay: In vitro Raf activity determination, AlphaScreen p-MEK readout, c-Raf (C-Raf FL)). Conditions: c-Raf approximately 4 nM, ATP 1 μM, pre-incubation 60 minutes, reaction 1 hour.
Assay type: biochemical
Procedure, shortened: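 Phosphorylation of kinase-dead biotinylated MEK1 (~10 nM) by C-Raf FL (~4 nM) read by AlphaScreen luminescence with anti-phospho-MEK1/2 after EDTA stop. ATP was 1 μM, with a 1 h reaction at room temperature. Compounds were pre-incubated with enzyme and substrate for 60 min in Tris/MgCl2 buffer, pH 7.5.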

Chain of C-Raf FL (full length CRAF with Y340E and Y341E activating mutations, co-expressed with h14-3-3 zeta) (P04049 whole entry Y340E/Y341E): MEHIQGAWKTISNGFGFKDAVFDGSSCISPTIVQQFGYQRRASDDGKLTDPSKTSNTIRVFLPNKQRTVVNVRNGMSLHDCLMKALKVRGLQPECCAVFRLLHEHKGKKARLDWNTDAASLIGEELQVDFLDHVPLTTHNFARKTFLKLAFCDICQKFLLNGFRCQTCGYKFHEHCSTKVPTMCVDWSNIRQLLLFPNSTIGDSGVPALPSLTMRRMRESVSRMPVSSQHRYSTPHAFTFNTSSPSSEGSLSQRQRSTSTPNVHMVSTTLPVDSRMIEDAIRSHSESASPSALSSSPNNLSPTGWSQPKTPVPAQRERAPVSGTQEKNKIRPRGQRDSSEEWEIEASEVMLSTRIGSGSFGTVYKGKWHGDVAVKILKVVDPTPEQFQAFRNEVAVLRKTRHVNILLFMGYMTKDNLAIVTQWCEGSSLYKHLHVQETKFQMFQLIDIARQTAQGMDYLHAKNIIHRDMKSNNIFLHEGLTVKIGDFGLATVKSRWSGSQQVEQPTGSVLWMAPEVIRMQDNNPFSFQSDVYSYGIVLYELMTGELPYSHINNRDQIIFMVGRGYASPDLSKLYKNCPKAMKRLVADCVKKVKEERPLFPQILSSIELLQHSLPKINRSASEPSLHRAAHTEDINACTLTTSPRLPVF
Chain of C-Raf FL (full length CRAF with Y340E and Y341E activating mutations, co-expressed with h14-3-3 zeta) (P63104 whole entry partner): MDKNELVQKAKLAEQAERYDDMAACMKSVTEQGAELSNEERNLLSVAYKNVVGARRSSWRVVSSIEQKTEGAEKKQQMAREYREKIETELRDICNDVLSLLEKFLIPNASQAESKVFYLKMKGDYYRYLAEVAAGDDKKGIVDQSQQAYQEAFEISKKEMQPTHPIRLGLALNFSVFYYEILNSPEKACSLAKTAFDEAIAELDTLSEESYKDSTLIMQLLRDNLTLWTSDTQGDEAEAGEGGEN

Compared with `Cc1ccc(NC(=O)c2ccnc(C(C)(F)F)c2)cc1-c1ccc2c(c1)N1CCOC[C@H]1C[C@H]2O` [Example 13, 2-(1,1-difluoroethyl)-N-(3-((4aR,6R)-6-hydroxy-1,2,4,4a,5,6-hexahydro-[1,4]oxazino[4,3-a]quinolin-9-yl)-4-methylphenyl)isonicotinamide], `Cc1ccc(NC(=O)c2ccnc(C(F)(F)F)c2)cc1-c1cnc2c(c1)N1CCOC[C@H]1C[C@H]2O` [Example 102, N-(3-((4aR,6R)-6-Hydroxy-1,2,4,4a,5,6-hexahydro-[1,4]oxazino[4,3-a][1,5]naphthyridin-9-yl)-4-methylphenyl)-2-(trifluoromethyl)isonicotinamide] is lower in IC50: 0.0055 nM for the first, < 0.0017 nM for the second.

Compared with `Cc1ccc(NC(=O)c2ccnc(C(F)(F)F)c2)cc1-c1ccc2c(c1)N1CCOCC1C(CO)(CO)C2` (racemic) [Example 49, (rac)-N-(3-(5,5-bis(hydroxymethyl)-1,2,4,4a,5,6-hexahydro-[1,4]oxazino[4,3-a]quinolin-9-yl)-4-methylphenyl)-2-(trifluoromethyl)isonicotinamide], `Cc1ccc(NC(=O)c2ccnc(C(C)(F)F)c2)cc1-c1ccc2c(c1)N1CCOCC1C(F)(CO)C2` (single isomer, unassigned) [Example 83, 2-(1,1-difluoroethyl)-N-(3-(5-fluoro-5-(hydroxymethyl)-1,2,4,4a,5,6-hexahydro-[1,4]oxazino[4,3-a]quinolin-9-yl)-4-methylphenyl)isonicotinamide] is 40-fold higher in IC50: 0.021 nM for the first, 0.85 nM for the second.

`Cc1ccc(NC(=O)c2cncc(C(F)(F)F)c2)cc1-c1ccc2c(c1)N1CCOC[C@H]1[C@](F)(CO)C2` [Example 387, N-(3-((4aS,5S)-5-fluoro-5-(hydroxymethyl)-1,2,4,4a,5,6-hexahydro-[1,4]oxazino[4,3-a]quinolin-9-yl)-4-methylphenyl)-5-(trifluoromethyl)nicotinamide] and `Cc1ccc(NC(=O)c2ccnc(C(F)(F)F)c2F)cc1-c1ccc2c(c1)N1CCOC[C@H]1[C@](F)(CO)C2` [Example 380, 3-fluoro-N-(3-((4aS,5S)-5-fluoro-5-(hydroxymethyl)-1,2,4,4a,5,6-hexahydro-[1,4)oxazino[4,3-a]quinolin-9-yl)-4-methylphenyl)-2-(trifluoromethyl)isonicotinamide] are within 1.5-fold of each other in IC50: 0.3 nM for the first, 0.4 nM for the second.

First: CCN1C[C@H]2COCCN2c2cc(-c3cc(NC(=O)c4ccnc(C(F)(F)F)c4)ccc3C)cnc2C1=O [Example 496, (S)-N-(3-(6-ethyl-7-oxo-1,2,4a,5,6,7-hexahydro-4H-[1,4]oxazino[4,3-a]pyrido[2,3-f][1,4]diazepin-10-yl)-4-methylphenyl)-2-(trifluoromethyl)iso-nicotinamide]
Second: CCN1C(=O)CC2COCCN2c2cc(-c3cc(NC(=O)c4ccnc(C(C)(F)F)c4)ccc3C)cnc21 (racemic) [Example 125, rac-2-(1,1-Difluoroethyl)-N-(3-(7-ethyl-6-oxo-1,2,4a,5,6,7-hexahydro-4H-[1,4]oxazino[4,3-d]pyrido[2,3-b][1,4]diazepin-10-yl)-4-methylphenyl)isonicotinamide]
The IC50 of the first is 21-fold higher: 0.7 nM for the first, 0.034 nM for the second.

First: Cc1ccc(NC(=O)c2ccnc(C(C)(F)F)c2)cc1-c1cnc2c(c1)N1CCOC[C@H]1[C@H](CO)C2 [Example 117, 2-(1,1-Difluoroethyl)-N-(3-((4aR,5R)-5-(hydroxymethyl)-1,2,4,4a,5,6-hexahydro-[1,4]oxazino[4,3-a][1,5]naphthyridin-9-yl)-4-methylphenyl)isonicotinamide]
Second: Cc1ccc(NC(=O)c2ccnc(C(C)(F)F)c2)cc1-c1cnc2c(c1)N1CCOC[C@@H]1[C@H](CO)C2 (racemic) [Example 116, rac-trans-2-(1,1-Difluoroethyl)-N-(3-(5-(hydroxymethyl)-1,2,4,4a,5,6-hexahydro-[1,4]oxazino[4,3-a][1,5]naphthyridin-9-yl)-4-methylphenyl)isonicotinamide]
The IC50 of the first is higher: 0.0047 nM for the first, < 0.0017 nM for the second.

First: Cc1ccc(NC(=O)c2ccnc(C(C)(F)F)c2)cc1-c1ccc2c(c1)N1CCOC[C@H]1[C@@](C)(C#N)C2 (racemic) [Example 88, (rac)-N-(3-(5-cyano-5-methyl-1,2,4,4a,5,6-hexahydro-[1,4]oxazino[4,3-a]quinolin-9-yl)-4-methylphenyl)-2-(1,1-difluoroethyl)isonictinamide]
Second: Cc1ccc(NC(=O)c2ccnc(C(C)(F)F)c2)cc1-c1cnc2c(c1)N1CCOC[C@H]1[C@@](C#N)(CF)C2 [Example 515, N-(3-((4aR,5S)-5-cyano-5-(fluoromethyl)-1,2,4,4a,5,6-hexahydro-[1,4]oxazino[4,3-a][1,5]naphthyridin-9-yl)-4-methylphenyl)-2-(1,1-difluoroethyl)iso-nicotinamide]
The IC50 of the first is 3.1-fold lower: 0.032 nM for the first, 0.1 nM for the second.

Compared with `Cc1ncc(NC(=O)c2cccc(C(F)(F)F)c2)cc1-c1ccc2c(c1)N1CCOCC1C1(COC1)C2` (racemic) [Example 56, (rac)-N-(6-methyl-5-(2,4,4a,6-tetrahydro-1H-spiro[[1,4]oxazino[4,3-a]quinoline-5,3′-oxetan]-9-yl)pyridin-3-yl)-3-(trifluoromethyl)benzamide], `Cc1ncc(NC(=O)c2cccc(C(F)(F)F)c2)cc1-c1cc(F)c2c(c1)N1CCOC[C@H]1[C@@](F)(CO)C2` [Example 431, N-(5-((4aS,5R)-5,7-difluoro-5-(hydroxymethyl)-1,2,4,4a,5,6-hexahydro-[1,4]oxazino[4,3-a]quinolin-9-yl)-6-methylpyridin-3-yl)-3-(trifluoromethyl)benzamide] is 62-fold higher in IC50: 0.071 nM for the first, 4.4 nM for the second.

`Cc1ccc(NC(=O)c2ccnc(C(F)(F)F)c2)cc1-c1cnc2c(c1)N1CCOC[C@@H]1[C@H](C(C)(C)O)C2` [Example 448, N-(3-((4aS,5R)-5-(2-hydroxypropan-2-yl)-1,2,4,4a,5,6-hexahydro-[1,4]oxazino[4,3-a][1,5]naphthyridin-9-yl)-4-methylphenyl)-2-(trifluoromethyl)isonicotinamide] and `CNC[C@H]1Cc2ncc(-c3cc(NC(=O)c4ccnc(C(F)(F)F)c4)ccc3C)cc2N2CCOC[C@H]12` [Example 531, N-(4-methyl-3-((4aS,5R)-5-((methylamino)meth-yl)-1,2,4,4a,5,6-hexahydro-[1,4]oxazino[4,3-a][1,5]naphthyridin-9-yl)phenyl)-2-(trifluoromethyl)iso-nicotinamide] are the same in IC50: 0.2 nM for the first, 0.2 nM for the second.

First: Cc1ccc(NC(=O)c2ccnc(C(F)(F)F)c2F)cc1-c1cnc2c(c1)N1CCOC[C@H]1CC(=O)N2CC(C)(C)O [Example 290, (R)-3-fluoro-N-(3-(7-(2-hydroxy-2-methylpropyl)-6-oxo-2,4,4a,5,6,7-hexahydro-1H-[1,4]oxazino[4,3-d]pyrido[2,3-b][1,4]diazepin-10-yl)-4-methylphenyl)-2-(trifluoromethyl) isonicotinamide]
Second: Cc1ccc(NC(=O)c2ccnc(C(F)(F)F)c2F)cc1-c1cnc2c(c1)C1CCOCC1OC(=O)N2CCO (stereo not drawn) [Example 331, 3-fluoro-N-(3-((4,11b-cis)-7-(2-hydroxyethyl)-6-oxo-2,4,4a,6,7,11b-hexahydro-1H-pyrano[4,3-f]pyrido[2,3-d][1,3]oxazepin-10-yl)-4-methylphenyl)-2-(trifluoromethyl) isonicotinamide]
The IC50 of the first is 6.6-fold lower: 1 nM for the first, 6.6 nM for the second.

`Cc1ccc(NC(=O)c2ccnc(C(F)(F)F)c2)cc1-c1ccc2c(c1)N1CCOCC[C@H]1C(F)(F)[C@H]2O` [Example 528] and `Cc1ccc(NC(=O)c2ccnc(C(C)(F)F)c2)cc1-c1cnc2c(c1)N1CCOC[C@@H]1C(F)(F)[C@@H]2O` [Example 165, N-(3-((4aR,6R)-5,5-difluoro-6-hydroxy-1,2,4,4a,5,6-hexahydro-[1,4]oxazino[4,3-a][1,5]naphthyridin-9-yl)-4-methylphenyl)-2-(1,1-difluoroethyl)isonicotinamide] are within 1.5-fold of each other in IC50: 0.7 nM for the first, 0.62 nM for the second.

First: Cc1ccc(NC(=O)c2ccnc(C(C)(F)F)c2)cc1-c1cc2c(nn1)OC(C)(C)C1COCCN21 (racemic) [Example 136, rac-2-(1,1-Difluoroethyl)-N-(3-(6,6-dimethyl-6a,7,9,10-tetrahydro-6H-[1,4]oxazino[4,3-d]pyridazino[3,4-b][1,4]oxazin-2-yl)-4-methylphenyl)isonicotinamide]
Second: CCN1C(=O)O[C@H]2COCC[C@@H]2c2cc(-c3cc(NC(=O)c4ccnc(C(F)(F)F)c4)ccc3C)cnc21 [Example 305, N-(3-((4aR,11bR)-7-ethyl-6-oxo-2,4,4a,6,7,11b-hexahydro-1H-pyrano[4,3-f]pyrido[2,3-d][1,3]oxazepin-10-yl)-4-methylphenyl)-2-(trifluoromethyl) isonicotinamide]
The IC50 of the first is 17-fold lower: 0.018 nM for the first, 0.3 nM for the second.

Compared with `CCN1C(=O)[C@@H]2COCC[C@H]2c2cc(-c3cc(NC(=O)c4cccc(C(F)(F)F)c4)cnc3C)cnc21` [Example 312, N-(5-((4aS, 10bR)-6-ethyl-5-oxo-1,4,4a,5,6,10b-hexahydro-2H-pyrano[3,4-c][1,8]naphthyridin-9-yl)-6-methylpyridin-3-yl)-3-(trifluoromethyl) benzamide], `CCN1C(=O)[C@H]2[C@@H]3COC[C@@H]3[C@H]2c2cc(-c3cc(NC(=O)c4ccnc(C(F)(F)F)c4)ccc3C)cnc21` [Example 270, N-(3-((6aR, 6bR, 9aR, 9bR)-5-ethyl-6-oxo-5,6,6a,6b,7,9,9a,9b-octahydrofuro[3′,4′: 3,4]cyclobuta[1,2-c][1,8]naphthyridin-2-yl)-4-methylphenyl)-2-(trifluoromethyl) isonicotinamide] is 2-fold higher in IC50: 0.1 nM for the first, 0.2 nM for the second. The first is the more potent here.

`Cc1ccc(NC(=O)c2ccnc(C(F)(F)F)c2F)cc1-c1cnc2c(c1)C1C3COCC3C1C(=O)N2CCO` (stereo not shown) [Example 280, 3-fluoro-N-(3-(5-(2-hydroxyethyl)-6-oxo-5,6,6a,6b,7,9,9a,9b-octahydrofuro[3′,4′: 3,4]cyclobuta[1,2-c][1,8]naphthyridin-2-yl)-4-methylphenyl)-2-(trifluoromethyl) isonicotinamide] showed an IC50 of 0.5 nM.
